In US9113629B2, “4-amino-6-(4-substituted-phenyl)-picolinates and 6-amino-2-(4-substituted-phenyl)-pyrimidine-4-carboxylates and their use as herbicides” (DOW AGROSCIENCES LLC, priority 2013, dated 2015):
Where two headings read alike, the source gives them in different places.

Experiments:
[1] = system: Key Grass and Sedge Weeds as well as Grass Crops; assay: Post-emergent Test II herbicidal activity (Table 6); assay type: in vivo; conditions: post-emergence, 336 h; for pest or weed control at 70 g/ha: application rate 70 g ai/ha; for pest or weed control at 140 g/ha: application rate 140 g ai/ha
Procedure, shortened: (§1)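 Visual injury ratings (0 = no injury, 100 = complete kill) were taken 14 d after treatment, relative to untreated plants. Seedlings at the first–second true leaf stage received overhead spray at 187 L/ha; the highest rate was serially diluted to ½×, ¼×, ⅛× and 1/16×.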

[2] = system: Key Broadleaf Weed and Crop Species; assay: Post-emergent Test II herbicidal activity (Table 5); assay type: in vivo; conditions: post-emergence, 336 h, post-emergent, 14 days after application; for pest or weed control at 70 g/ha: 70 g ai/ha; for pest or weed control at 140 g/ha: 140 g ai/ha
Procedure, shortened: as §1

[3] = CYPES: yellow nutsedge (Cyperus esculentus), read-out: Visual Growth Reduction (%) 14 Days After Application, CYPES
[4] = DIGSA: crabgrass (Digitaria sanguinalis), read-out: Visual Growth Reduction (%) 14 Days After Application, DIGSA
[5] = ECHCG: barnyardgrass (Echinochloa crus-galli), read-out: Visual Growth Reduction (%) 14 Days After Application, ECHCG
[6] = ORYSA: rice (Oryza sativa), read-out: Visual Growth Reduction (%) 14 Days After Application, ORYSA
[7] = SETFA: giant foxtail (Setaria faberi), read-out: Visual Growth Reduction (%) 14 Days After Application, SETFA
[8] = SORVU: grain sorghum (Sorghum vulgare), read-out: Visual Growth Reduction (%) 14 Days After Application, SORVU
[9] = TRZSS (wheat, Triticum aestivum), read-out: Visual Growth Reduction (%) 14 Days After Application, TRZSS
[10] = ZEAMX: maize, corn (Zea mays), read-out: Visual Growth Reduction (%) 14 Days After Application, ZEAMX
[11] = ABUTH: velvetleaf (Abutilon theophrasti), read-out: Visual Growth Reduction (%) 14 Days After Application ABUTH
[12] = AMARE: redroot pigweed (Amaranthus retroflexus), read-out: Visual Growth Reduction (%) 14 Days After Application AMARE
[13] = BRSNN: oilseed-rape, canola (Brassica napus), read-out: Visual Growth Reduction (%) 14 Days After Application BRSNN
[14] = CHEAL: lambsquarters (Chenopodium album), read-out: Visual Growth Reduction (%) 14 Days After Application CHEAL
[15] = EPHHL: wild poinsettia (Euphorbia heterophylla), read-out: Visual Growth Reduction (%) 14 Days After Application EPHHL
[16] = HELAN: sunflower (Helianthus annuus), read-out: Visual Growth Reduction (%) 14 Days After Application HELAN
[17] = VIOTR: wild pansy (Viola tricolor), read-out: Visual Growth Reduction (%) 14 Days After Application VIOTR

COC(=O)c1nc(-c2ccc(C#N)cc2F)c(F)c(N)c1Cl [Compound 44, Methyl 4-amino-3-chloro-6-(4-cyano-2-fluorophenyl)-5-fluoropicolinate]
pest or weed control at 70 g/ha [1, 3]: 30 to 44%
pest or weed control at 140 g/ha [1, 3]: 45 to 59%
pest or weed control at 70 g/ha [1, 4]: 0 to 29%
pest or weed control at 140 g/ha [1, 4]: 0 to 29%
pest or weed control at 70 g/ha [1, 5]: 0 to 29%
pest or weed control at 140 g/ha [1, 5]: 0 to 29%
pest or weed control at 70 g/ha [1, 6]: 0 to 29%
pest or weed control at 140 g/ha [1, 6]: 0 to 29%
pest or weed control at 70 g/ha [1, 7]: 0 to 29%
pest or weed control at 140 g/ha [1, 7]: 0 to 29%
pest or weed control at 70 g/ha [1, 8]: 0 to 29%
pest or weed control at 140 g/ha [1, 8]: 0 to 29%
pest or weed control at 70 g/ha [1, 9]: 30 to 44%
pest or weed control at 140 g/ha [1, 9]: 30 to 44%
pest or weed control at 70 g/ha [1, 10]: 0 to 29%
pest or weed control at 140 g/ha [1, 10]: 0 to 29%
pest or weed control at 70 g/ha [2, 11]: 30 to 44%
pest or weed control at 140 g/ha [2, 11]: 60 to 74%
pest or weed control at 70 g/ha [2, 12]: 75 to 84%
pest or weed control at 140 g/ha [2, 12]: 95 to 100%
pest or weed control at 70 g/ha [2, 13]: 0 to 29%
pest or weed control at 140 g/ha [2, 13]: 0 to 29%
pest or weed control at 70 g/ha [2, 14]: 75 to 84%
pest or weed control at 140 g/ha [2, 14]: 85 to 94%
pest or weed control at 70 g/ha [2, 15]: 85 to 94%
pest or weed control at 140 g/ha [2, 15]: 95 to 100%
pest or weed control at 70 g/ha [2, 16]: 85 to 94%
pest or weed control at 140 g/ha [2, 16]: 95 to 100%
pest or weed control at 70 g/ha [2, 17]: 0 to 29%
pest or weed control at 140 g/ha [2, 17]: 0 to 29%
